Assay results from patent publication US5094723A, “Separation of m-xylene from p-xylene or o-xylene by extractive distillation with alcohols” (priority 1991, dated 1992).

Experiments:
Format in all cases: physicochemical
[1] = Relative volatility, separation of p-xylene from m-xylene, vapor-liquid equilibrium still; conditions: for effectiveness in bringing m-xylene out as the overhead from p-xylene: alcohols; for Relative Volatility: vapor-liquid equilibrium still
Excerpt: The data in Table 5 was obtained in a vapor-liquid equilibrium still.
Twenty grams of m-xylene, 60 grams of p-xylene, 30 grams of cyclododecanol and 15 grams of benzyl alcohol were charged to the vapor-liquid equilibrium still and refluxed for five hours.
Twenty grams of m-xylene, 60 grams of p-xylene, 30 grams of cyclododecanol and 15 grams of diisobutyl carbinol were charged to the vapor-liquid equilibrium still and refluxed for four hours.

[2] = Relative volatility, separation of m-xylene from o-xylene, vapor-liquid equilibrium still; conditions: for effectiveness in separation of m-xylene from o-xylene: in words
Description: The data in Table 2 was obtained in a vapor-liquid equilibrium still.
Ten grams of m-xylene, 30 grams of o-xylene and 20 grams of cyclododecanol were charged to a vapor-liquid equilibrium still and refluxed for three hours.
Ten grams of m-xylene, 30 grams of o-xylene, 20 grams of cyclododecanol and ten grams of diisobutyl carbinol were charged to the vapor-liquid equilibrium still and refluxed for 14 hours.

[3] = Extractive distillation run in glass perforated plate rectification column, m-xylene from o-xylene; conditions: for Relative Volatility: m-xylene from o-xylene, 7.3 theoretical plates, Fenske equation
Description: It yielded a relative volatility of 1.31 after one hour and 1.37 after two hours of continuous operation.
225 grams of m-xylene and 75 grams of o-xylene were placed in the stillpot of a glass perforated plate rectification column containing 7.3 theoretical plates, and heated. When refluxing began, an extractive agent comprising cyclododecanol was pumped into the column at a rate of 15 ml/min. The temperature of the extractive agent as it entered the column was 95° C. After establishing the feed rate of the extractive agent, the heat input to the column was adjusted to give a total reflux rate of 40 ml/min. After one hour of operation, overhead and bottoms samples of approximately two ml. were collected and analysed by gas chromatography. The overhead analysis was 95.5% m-xylene, 4.5% o-xylene and the bottoms analysis was 75% m-xylene, 25% o-xylene. Using these compositions in the Fenske equation, with the number of theoretical plates in the column being 7.3, gave an average relative volatility of 1.31 for each theoretical plate. After a total of two hours of continuous operation, samples of overhead and bottoms were again taken and analysed. The overhead analysis was 96.5% m-xylene, 3.5% o-xylene; the bottoms analysis was 73.6% m-xylene, 26.4% o-xylene which is a relative volatility of 1.37.

[4] = * brings the m-xylene out as overhead (m-xylene to p-xylene)
[5] = m-xylene to o-xylene, effective agents (alone or mixed as labelled), vapor-liquid equilibrium still
[6] = p-xylene from m-xylene, in words
[7] = m-xylene from o-xylene, ineffective agents when mixed with cyclododecanol

SMILES: CCCCCCCCCCO [1-Decanol]
- effectiveness in bringing m-xylene out as the overhead from p-xylene ([1]; in words): effective in bringing m-xylene out as the overhead
- effectiveness in separation of m-xylene from o-xylene ([2]; alcohols): effective

SMILES: CCCCCCCCCCCCO [1-Dodecanol]
- Relative Volatility [1, 4]: 1.11
- effectiveness in bringing m-xylene out as the overhead from p-xylene ([1]; in words): effective in bringing m-xylene out as the overhead
- effectiveness in separation of m-xylene from o-xylene ([2]; alcohols): effective
- Relative Volatility [2, 5]: 1.31

SMILES: CCCCCCCCCO [1-Nonanol]
- Relative Volatility [1, 4]: 1.14
- effectiveness in bringing m-xylene out as the overhead from p-xylene ([1]; in words): effective in bringing m-xylene out as the overhead
- effectiveness in separation of m-xylene from o-xylene ([2]; alcohols): effective

SMILES: CCCCCCCCO [1-Octanol]
- enhancement of relative volatility when mixed with cyclododecanol [1, 6]: enhance the relative volatility
- effectiveness in separation of m-xylene from o-xylene ([2]; alcohols): effective
- Relative Volatility [2, 5]: 1.38

SMILES: CCCCC(CC)COC(C)=O (stereo not drawn) [2-Ethyl hexyl acetate]
- Relative Volatility [2, 7]: 1.22

SMILES: CCCCC(CC)CO (stereo not drawn) [2-Ethyl-1-hexanol]
- Relative Volatility [2, 7]: 1.29

SMILES: Cc1ccccc1[N+](=O)[O-] [2-Nitrotouene]
- Relative Volatility [2, 7]: 1.25

SMILES: CCCCCCC(C)O (stereo not drawn) [2-Octanol]
- effectiveness in separation of m-xylene from o-xylene ([2]; alcohols): effective
- Relative Volatility [2, 5]: 1.30

SMILES: OCc1ccccc1 [Benzyl alcohol]
- Relative Volatility [1, 4]: 1.19
- effectiveness in bringing m-xylene out as the overhead from p-xylene ([1]; in words): effective in bringing m-xylene out as the overhead
- enhancement of relative volatility when mixed with cyclododecanol [1, 6]: enhance the relative volatility

SMILES: O=C(OCc1ccccc1)c1ccccc1 [Benzyl benzoate]
- Relative Volatility [2, 7]: 1.0

SMILES: CCCCOC(=O)CCC [Butyl butyrate]
- Relative Volatility [2]: 1.26

SMILES: OC1CCCCCCCCCCC1 [Cyclododecanol]
- xylene brought out as overhead product [1, 6]: brings out the p-xylene as overhead product
- Relative Volatility ([1]; p-xylene to m-xylene (no asterisk)): 1.11
- Weight % m-Xylene ([3]; bottoms, 1 hour): 75%
- Weight % o-Xylene ([3]; bottoms, 1 hour): 25%
- Weight % m-Xylene ([3]; bottoms, 2 hours): 73.6%
- Weight % o-Xylene ([3]; bottoms, 2 hours): 26.4%
- Relative Volatility ([3]; 1 hour): 1.31
- Relative Volatility ([3]; 2 hours): 1.37
- Weight % m-Xylene ([3]; overhead, 1 hour): 95.5%
- Weight % o-Xylene ([3]; overhead, 1 hour): 4.5%
- Weight % m-Xylene ([3]; overhead, 2 hours): 96.5%
- Weight % o-Xylene ([3]; overhead, 2 hours): 3.5%
- effectiveness in separation of m-xylene from o-xylene ([2]; alcohols): effective
- Relative Volatility [2, 5]: 1.37
- liquid composition, m-xylene ([2]; vapor-liquid equilibrium still): 23.6%
- liquid composition, o-xylene ([2]; vapor-liquid equilibrium still): 76.4%
- vapor composition, m-xylene ([2]; vapor-liquid equilibrium still): 29.8%
- vapor composition, o-xylene ([2]; vapor-liquid equilibrium still): 70.2%

SMILES: CCOC(=O)CC(=O)OCC [Diethyl malonate]
- Relative Volatility [2, 7]: 1.23

SMILES: CCCCCCOCCOCCO [Diethylene glycol hexyl ether]
- Relative Volatility [2, 7]: 0.7

SMILES: CC(C)CC(O)CC(C)C [Diisobutyl carbinol]
- Relative Volatility [1, 4]: 1.23
- effectiveness in bringing m-xylene out as the overhead from p-xylene ([1]; in words): effective in bringing m-xylene out as the overhead
- enhancement of relative volatility when mixed with cyclododecanol [1, 6]: enhance the relative volatility
- effectiveness in separation of m-xylene from o-xylene ([2]; alcohols): effective
- Relative Volatility [2, 5]: 1.27

SMILES: CCCCOCCOC(C)=O [Ethylene glycol butyl ether acetate]
- enhancement of relative volatility when mixed with cyclododecanol [1, 6]: enhance the relative volatility
- Relative Volatility [2, 7]: 1.1

SMILES: CC(C)CCCCCCCO [Isodecanol (ASHLAND), Isodecanol]
- Relative Volatility [2, 5]: 1.27

SMILES: CC(C)CCCCCCCO [Isodecanol (EXXON), Isodecanol]
- Relative Volatility [2, 5]: 1.18

SMILES: CC(C)CCCCCCCO [Isodecanol]
- effectiveness in bringing m-xylene out as the overhead from p-xylene ([1]; in words): effective in bringing m-xylene out as the overhead
- effectiveness in separation of m-xylene from o-xylene ([2]; alcohols): effective

SMILES: CC(C)CCCCCCO [Isononyl alcohol (EXXON), Isononyl alcohol]
- effectiveness in separation of m-xylene from o-xylene ([2]; alcohols): effective
- Relative Volatility [2, 5]: 1.22

SMILES: CC(C)CCCCCO [Isooctanol (U.C.), Isooctanol]
- Relative Volatility [2, 5]: 1.27

SMILES: COC(=O)c1ccccc1 [Methyl benzoate]
- Relative Volatility [2, 7]: 1.0

SMILES: OCCc1ccccc1 [Phenethyl alcohol]
- enhancement of relative volatility when mixed with cyclododecanol [1, 6]: enhance the relative volatility
- Relative Volatility [2, 7]: 1.29

SMILES: CCC(=O)c1ccccc1 [Propiophenone]
- enhancement of relative volatility when mixed with cyclododecanol [1, 6]: enhance the relative volatility
- Relative Volatility [2, 7]: 0.8

SMILES: CC1COC(=O)O1 (stereo not drawn) [Propylene carbonate]
- Relative Volatility [2, 7]: 1.07

SMILES: CCCCCCCCCCCO [Undecyl alcohol]
- Relative Volatility [1, 4]: 1.14
- effectiveness in bringing m-xylene out as the overhead from p-xylene ([1]; in words): effective in bringing m-xylene out as the overhead
- effectiveness in separation of m-xylene from o-xylene ([2]; alcohols): effective
- Relative Volatility [2, 5]: 1.40

SMILES: CC(=O)c1ccccc1 [acetophenone]
- effectiveness in separation of m-xylene from o-xylene ([2]; mixed with cyclododecanol): effective relative volatilities
- effectiveness in separation of m-xylene from o-xylene ([2]; used alone): relatively ineffective

SMILES: CCCCOCCOCCO [diethylene glycol butyl ether]
- enhancement of relative volatility when mixed with cyclododecanol [1, 6]: enhance the relative volatility
- effectiveness in separation of m-xylene from o-xylene ([2]; mixed with cyclododecanol): effective relative volatilities
- effectiveness in separation of m-xylene from o-xylene ([2]; used alone): relatively ineffective

SMILES: CCOCCOCCO [diethylene glycol ethyl ether]
- effectiveness in separation of m-xylene from o-xylene ([2]; mixed with cyclododecanol): effective relative volatilities
- effectiveness in separation of m-xylene from o-xylene ([2]; used alone): relatively ineffective

SMILES: CN(C)C=O [dimethylformamide]
- enhancement of relative volatility when mixed with cyclododecanol [1, 6]: enhance the relative volatility

SMILES: C[S+](C)[O-] [dimethylsulfoxide]
- enhancement of relative volatility when mixed with cyclododecanol [1, 6]: enhance the relative volatility
- effectiveness in separation of m-xylene from o-xylene ([2]; mixed with cyclododecanol): effective relative volatilities
- effectiveness in separation of m-xylene from o-xylene ([2]; used alone): relatively ineffective

SMILES: CCOC(=O)c1ccccc1O [ethyl salicylate]
- effectiveness in separation of m-xylene from o-xylene ([2]; mixed with cyclododecanol): effective relative volatilities
- effectiveness in separation of m-xylene from o-xylene ([2]; used alone): relatively ineffective

SMILES: CC(C)CCCCCO [isooctanol]
- effectiveness in separation of m-xylene from o-xylene ([2]; alcohols): effective

SMILES: COC(=O)c1ccccc1O [methyl salicylate]
- effectiveness in separation of m-xylene from o-xylene ([2]; mixed with cyclododecanol): effective relative volatilities
- effectiveness in separation of m-xylene from o-xylene ([2]; used alone): relatively ineffective

SMILES: CC(=O)Oc1ccccc1 [phenyl acetate]
- effectiveness in separation of m-xylene from o-xylene ([2]; mixed with cyclododecanol): effective relative volatilities
- effectiveness in separation of m-xylene from o-xylene ([2]; used alone): relatively ineffective

SMILES: O=S1(=O)CCCC1 [sulfolane]
- effectiveness in separation of m-xylene from o-xylene ([2]; mixed with cyclododecanol): effective relative volatilities
- effectiveness in separation of m-xylene from o-xylene ([2]; used alone): relatively ineffective

SMILES: OCC1CCCO1 (stereo not drawn) [tetrahydrofurfuryl alcohol]
- enhancement of relative volatility when mixed with cyclododecanol [1, 6]: enhance the relative volatility
